Measured values: US6762326B2, “C2-substituted idan-1-ones and their derivatives, processes for their preparation and their use as pharmaceuticals” (Aventis Pharma Deutschland GmbH, priority 2001, dated 2004)

Test system: female NMRI mice
Assay: Anorectic action: cumulative evaporated milk consumption after 24 h feed removal
Type: in vivo
Settings: versus control animals
Description: The anorectic action was tested on female NMRI mice. After removal of feed for 24 hours, the preparation to be tested was administered intraperitoneally (ip) or by gavage (po). The animals were housed singly and, with free access to drinking water, they were offered evaporated milk 30 minutes after administration of the preparation. The consumption of evaporated milk was determined and the general behavior of the animals was monitored every half an hour for 7 hours. The measured milk consumption was compared to that of vehicle-treated control animals.

**Q.** How did the “Reduction in cumulative milk consumption as % of the control” value (“Reduction … as % of the control” below) (10 mg/kg ip) turn out when CSC1Cc2cc(Cl)ccc2C1=O (stereo not drawn) [Example 1, 5-Chloro-2-methylsulfanylindan-1-one] was run?
**A.** 64%

**Q.** With C[S+]([O-])C1Cc2cc(Cl)ccc2C1=O (stereo not drawn) [Example 9, 5-chloro-2-methanesulfinylindan-1-one] as the compound, how does the “Reduction … as % of the control” value (50 mg/kg po) read?
**A.** 73%

**Q.** CS(=O)(=O)C1Cc2cc(Cl)ccc2C1=O (stereo not drawn) [Example 2, 5-Chloro-2-methanesulfonylindan-1-one] was tested. Which “Reduction … as % of the control” value (20 mg/kg ip) did it give?
**A.** 70%
